# Values joined by “and” are separate entries in the source; they are usually repeats but may differ in a detail not shown here. Equal values may be shown once.
# Tested on: LG0567-F671-PDC complex spheroids viability
# Assay: Anticancer human tumor LG0567-F671-PDC patient-derived lung adenocarcinoma cell line growth inhibition [RAS]
# Details: for viability, T/C: stronger effect = lower value
# Method in brief: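 Multi-cell-type spheroids: tumor cells plus HUVEC endothelial cells and mesenchymal stem cells. RAS-pathway inhibitors were combined with targeted agents, each dosed in half-log steps down from clinical Cmax, or from 10 microM when Cmax was unknown.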
# 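Note: spheroids exposed to compound for seven days before readout.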
# 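Throughout, for IC50: luminescence signal used as a proxy for viable cells.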
structure (smiles),measurement,setting,value
CC(Nc1ccc2c(c1)OCCn1cc(N3C(=O)OCC3C(F)F)nc1-2)C(N)=O (centres undefined),"viability, T/C",compound 0.0316 µM,79.5% [middle of 4 runs]
same,"viability, T/C",compound 0.1 µM,63.3% [middle of 4 runs]
same,"viability, T/C",compound 0.316 µM,52.5% [middle of 4 runs]
same,"viability, T/C",compound 1 µM,43.4% [middle of 4 runs]
same,"viability, T/C",compound 3.16 µM,33.8% (2×) and 32.1% and 37.8%
same,"viability, T/C",compound 10 µM,30.5% [middle of 4 runs]
same,IC50,curve of compound,386 nM [middle of 4 runs]
CCc1c2c(nc3ccc(O)cc13)-c1cc3c(c(=O)n1C2)COC(=O)[C@]3(O)CC + CCn1c(-c2cc(N3CCN(C)CC3)cnc2C(C)OC)c2c3cc(ccc31)-c1csc(n1)CC(NC(=O)C1CC1C)C(=O)N1CCCC(N1)C(=O)OCC(C)(C)C2,IC50,"curve of first compound, second compound 0.000949 µM",< 0.949 nM
same,IC50,"curve of first compound, second compound 0.003 µM",< 0.949 nM
same,IC50,"curve of first compound, second compound 0.00949 µM",< 0.949 nM
same,IC50,"curve of first compound, second compound 0.03 µM",< 0.949 nM
same,IC50,"curve of first compound, second compound 0.0949 µM",< 0.949 nM
same,IC50,"curve of first compound, second compound 0.3 µM",< 0.949 nM
same,"viability, T/C","second compound 0.000949 µM, first compound 0.000949 µM",25.9%
same,"viability, T/C","second compound 0.000949 µM, first compound 0.003 µM",19.2%
same,"viability, T/C","second compound 0.000949 µM, first compound 0.00949 µM",16.8%
same,"viability, T/C","second compound 0.000949 µM, first compound 0.03 µM",9.71%
same,"viability, T/C","second compound 0.000949 µM, first compound 0.0949 µM",6.4%
same,"viability, T/C","second compound 0.000949 µM, first compound 0.3 µM",3.66%
same,"viability, T/C","second compound 0.003 µM, first compound 0.000949 µM",13.2%
same,"viability, T/C","second compound 0.003 µM, first compound 0.003 µM",10.5%
same,"viability, T/C","second compound 0.003 µM, first compound 0.00949 µM",8.66%
same,"viability, T/C","second compound 0.003 µM, first compound 0.03 µM",6.1%
same,"viability, T/C","second compound 0.003 µM, first compound 0.0949 µM",4.22%
same,"viability, T/C","second compound 0.003 µM, first compound 0.3 µM",2.19%
same,"viability, T/C","second compound 0.00949 µM, first compound 0.000949 µM",6.6%
same,"viability, T/C","second compound 0.00949 µM, first compound 0.003 µM",5.95%
same,"viability, T/C","second compound 0.00949 µM, first compound 0.00949 µM",4.92%
same,"viability, T/C","second compound 0.00949 µM, first compound 0.03 µM",3.8%
same,"viability, T/C","second compound 0.00949 µM, first compound 0.0949 µM",2.17%
same,"viability, T/C","second compound 0.00949 µM, first compound 0.3 µM",1.39%
same,"viability, T/C","second compound 0.03 µM, first compound 0.000949 µM",4.12%
same,"viability, T/C","second compound 0.03 µM, first compound 0.003 µM",3.96%
same,"viability, T/C","second compound 0.03 µM, first compound 0.00949 µM",3.68%
same,"viability, T/C","second compound 0.03 µM, first compound 0.03 µM",2.7%
same,"viability, T/C","second compound 0.03 µM, first compound 0.0949 µM",1.39%
same,"viability, T/C","second compound 0.03 µM, first compound 0.3 µM",0.64%
same,"viability, T/C","second compound 0.0949 µM, first compound 0.000949 µM",3.25%
same,"viability, T/C","second compound 0.0949 µM, first compound 0.003 µM",3.49%
same,"viability, T/C","second compound 0.0949 µM, first compound 0.00949 µM",2.57%
same,"viability, T/C","second compound 0.0949 µM, first compound 0.03 µM",1.66%
same,"viability, T/C","second compound 0.0949 µM, first compound 0.0949 µM",1.51%
same,"viability, T/C","second compound 0.0949 µM, first compound 0.3 µM",0.39%
same,"viability, T/C","second compound 0.3 µM, first compound 0.000949 µM",2.45%
same,"viability, T/C","second compound 0.3 µM, first compound 0.003 µM",2.81%
same,"viability, T/C","second compound 0.3 µM, first compound 0.00949 µM",2.34%
same,"viability, T/C","second compound 0.3 µM, first compound 0.03 µM",1.76%
same,"viability, T/C","second compound 0.3 µM, first compound 0.0949 µM",0.8%
same,"viability, T/C","second compound 0.3 µM, first compound 0.3 µM",0.31%
Nc1ccn(C2OC(CO)C(O)C2(F)F)c(=O)n1 (centres undefined),"viability, T/C",compound 0.00316 µM,93.3% [middle of 4 runs]
same,"viability, T/C",compound 0.01 µM,81% [middle of 4 runs]
same,"viability, T/C",compound 0.0316 µM,79.1% [middle of 4 runs]
same,"viability, T/C",compound 0.1 µM,71.7% [middle of 4 runs]
same,"viability, T/C",compound 0.316 µM,69.5% [middle of 4 runs]
same,"viability, T/C",compound 1 µM,61.7% [middle of 4 runs]
same,IC50,curve of compound,> 1000 nM
Cc1nc(N2CCC3(CC2)COC(C)C3N)c(CO)nc1Sc1ccnc(N)c1Cl (centres undefined) + C#Cc1c(F)ccc2cc(O)cc(-c3ncc4c(N5CC6CCC(C5)N6)nc(OCC56CCCN5CC(F)C6)nc4c3F)c12,IC50,"curve of first compound, second compound 0.0316 µM",65.8 nM
same,IC50,"curve of first compound, second compound 0.1 µM",< 31.6 nM
same,IC50,"curve of first compound, second compound 0.316 µM",< 31.6 nM
same,IC50,"curve of first compound, second compound 1 µM",< 31.6 nM
same,IC50,"curve of first compound, second compound 3.16 µM",< 31.6 nM
same,IC50,"curve of first compound, second compound 10 µM",< 31.6 nM
same,"viability, T/C","second compound 0.0316 µM, first compound 0.0316 µM",63.3%
same,"viability, T/C","second compound 0.0316 µM, first compound 0.1 µM",43.5%
same,"viability, T/C","second compound 0.0316 µM, first compound 0.316 µM",26.2%
same,"viability, T/C","second compound 0.0316 µM, first compound 1 µM",19.9%
same,"viability, T/C","second compound 0.0316 µM, first compound 3.16 µM",15.2%
same,"viability, T/C","second compound 0.0316 µM, first compound 10 µM",13.1%
same,"viability, T/C","second compound 0.1 µM, first compound 0.0316 µM",46.1%
same,"viability, T/C","second compound 0.1 µM, first compound 0.1 µM",31.3%
same,"viability, T/C","second compound 0.1 µM, first compound 0.316 µM",21.6%
same,"viability, T/C","second compound 0.1 µM, first compound 1 µM",15.5%
same,"viability, T/C","second compound 0.1 µM, first compound 3.16 µM",12.7%
same,"viability, T/C","second compound 0.1 µM, first compound 10 µM",9.84%
same,"viability, T/C","second compound 0.316 µM, first compound 0.0316 µM",35.3%
same,"viability, T/C","second compound 0.316 µM, first compound 0.1 µM",20.9%
same,"viability, T/C","second compound 0.316 µM, first compound 0.316 µM",18.1%
same,"viability, T/C","second compound 0.316 µM, first compound 1 µM",10.4%
same,"viability, T/C","second compound 0.316 µM, first compound 3.16 µM",8.05%
same,"viability, T/C","second compound 0.316 µM, first compound 10 µM",7.7%
same,"viability, T/C","second compound 1 µM, first compound 0.0316 µM",21%
same,"viability, T/C","second compound 1 µM, first compound 0.1 µM",16.2%
same,"viability, T/C","second compound 1 µM, first compound 0.316 µM",10.6%
same,"viability, T/C","second compound 1 µM, first compound 1 µM",10.3%
same,"viability, T/C","second compound 1 µM, first compound 3.16 µM",4.69%
same,"viability, T/C","second compound 1 µM, first compound 10 µM",3.85%
same,"viability, T/C","second compound 3.16 µM, first compound 0.0316 µM",12.1%
same,"viability, T/C","second compound 3.16 µM, first compound 0.1 µM",8.68%
same,"viability, T/C","second compound 3.16 µM, first compound 0.316 µM",5.69%
same,"viability, T/C","second compound 3.16 µM, first compound 1 µM",4.95%
same,"viability, T/C","second compound 3.16 µM, first compound 3.16 µM",3.57%
same,"viability, T/C","second compound 3.16 µM, first compound 10 µM",2.94%
same,"viability, T/C","second compound 10 µM, first compound 0.0316 µM",7.2%
same,"viability, T/C","second compound 10 µM, first compound 0.1 µM",6.13%
same,"viability, T/C","second compound 10 µM, first compound 0.316 µM",3.88%
same,"viability, T/C","second compound 10 µM, first compound 1 µM",2.23%
same,"viability, T/C","second compound 10 µM, first compound 3.16 µM",2.98%
same,"viability, T/C","second compound 10 µM, first compound 10 µM",1.91%
CC1(O)CCCC1n1c(=O)c(C(F)F)cc2cnc(NC3CCN(S(C)(=O)=O)CC3)nc21 (centres undefined),"viability, T/C",compound 0.0316 µM,88.7% [middle of 4 runs]
same,"viability, T/C",compound 0.1 µM,86.2% [middle of 4 runs]
same,"viability, T/C",compound 0.316 µM,81.6% [middle of 4 runs]
same,"viability, T/C",compound 1 µM,91.5% [middle of 4 runs]
same,"viability, T/C",compound 3.16 µM,93.8% [middle of 4 runs]
same,"viability, T/C",compound 10 µM,47% [middle of 4 runs]
